Test results from patent US6949350B1, “Chemosensitivity determination using phosphatidylserine” (Evotec Analytical Systems GmbH, priority 1999, dated 2005).
Starred links: 1 amine or outer side, 2 acyl side, 3 side chain; linkers in the order of their positions; H or OH if unused. Positions of bridges follow the written chain, without caps; N, C: chain ends. Non-standard residues stand in square brackets, D forms with d. Residues, ends and D or L forms follow the SMILES beside them. Chains are numbered I, II in the order given. Actinocin(9to1) = Cc1c2oc3c(C)ccc(C(=O)[*:1])c3nc-2c(C(=O)[*:2])c(N)c1=O; NMeV = CN[C@H](C(=O)O)C(C)C; Sar = CNCC(=O)O

Assays:
Jurkat P40 cells = assay: time-resolved apoptosis detection with fluorescence-labeled annexin V by fluorescence microscopy; type: cell-based; conditions: 1 μg/ml
Procedure: 100,000 Jurkat P40 cells were simultaneously mixed with 1 μg/ml actinomycin D in the presence of 2 mM CaCl2 and fluorescence-labeled annexin V and incubated at 37° C. in 5% CO2 over a period of up to 24 h. After 4, 6, 8, 10 and 24 h, an aliquot was withdrawn, applied to a glass slide, fixed and analyzed by fluorescence microscopy. […] When the time elapsed was extended and the cell destruction more advanced, there would be a time when fluorescent cell debris would no longer be visible. It was shown that apoptosis in a solution can be followed in a time-resolved manner by recording images at different times. The reaction mix was prepared at the beginning, and subsequently, the increasing apoptosis was only analyzed by means of imaging methods.

[1] = marker which binds phosphatidylserine; binding depends on calcium cations; cited from earlier work

| Molecule | degree of apoptosis (number of annexin V stained cells in the observation field) (Jurkat P40 cells; 100,000 Jurkat P40 cells, 2 mM CaCl2, 37° C., 5% CO2, aliquots after 4, 6, 8, 10 and 24 h) | secondary necrosis (cell fragments) (Jurkat P40 cells; Jurkat P40 cells, after 24 h) | Kd [1] |
| --- | --- | --- | --- |
| Cc1c2oc3c(C)ccc(C(=O)N[C@@H]4C(=O)N[C@H](C(C)C)C(=O)N5CCC[C@H]5C(=O)N(C)CC(=O)N(C)[C@@H](C(C)C)C(=O)O[C@@H]4C)c3nc-2c(C(=O)N[C@@H]2C(=O)N[C@H](C(C)C)C(=O)N3CCC[C@H]3C(=O)N(C)CC(=O)N(C)[C@@H](C(C)C)C(=O)O[C@@H]2C)c(N)c1=O [actinomycin D] (I: T[dV]P[Sar][NMeV] / II: T[dV]P[Sar][NMeV]; ester I:1-I:C, II:1-II:C; linker I:N-II:N via Actinocin(9to1)) | the degree of apoptosis increases | smaller cell fragments become visible which indicate secondary necrosis |  |
| annexin V: marker which binds phosphatidylserine |  |  | 0.5 nM |
